Read-outs that look alike come from different tables or passages of the source.
Experiments:
[1] = target: AGK (Homo sapiens, UniProt Q53H12); assay: KiNativ, OCI cells live cell; assay type: cell-based; conditions: 2 h, labeling site ATP, peptide […]
[2] = target: Erk1 (Homo sapiens, UniProt P27361); assay: KiNativ, OCI cells live cell; assay type: cell-based; conditions: 2 h, labeling site Lys2, peptide […]
[3] = target: ULK3 (Homo sapiens, UniProt Q6PHR2); assay: KiNativ, OCI cells live cell; assay type: cell-based; conditions: labeling site Lys1, peptide EVVAIKCVAK
[4] = target: T1, CHEK1 (Homo sapiens, UniProt O14757); assay: KdELECT binding assay
T1 construct: purchased Eurofins DiscoverX

[5] = target: DGKA (Homo sapiens, UniProt P23743); assay: KiNativ, OCI cells live cell; assay type: cell-based; conditions: 2 h, labeling site ATP, peptide […]
[6] = tested on: Wnk1, Wnk2, Wnk3; assay: KiNativ, OCI cells live cell; assay type: cell-based, human; conditions: labeling site Lys2, peptide DLKCDNIFITGPTGSVK
[7] = target: T2, AurA (Homo sapiens, UniProt O14965); assay: KiNativ, MOLM13 live cells; assay type: cell-based; conditions: MOLM-13, 2 h, 100 nM
T2 sequence (O14965 1-403): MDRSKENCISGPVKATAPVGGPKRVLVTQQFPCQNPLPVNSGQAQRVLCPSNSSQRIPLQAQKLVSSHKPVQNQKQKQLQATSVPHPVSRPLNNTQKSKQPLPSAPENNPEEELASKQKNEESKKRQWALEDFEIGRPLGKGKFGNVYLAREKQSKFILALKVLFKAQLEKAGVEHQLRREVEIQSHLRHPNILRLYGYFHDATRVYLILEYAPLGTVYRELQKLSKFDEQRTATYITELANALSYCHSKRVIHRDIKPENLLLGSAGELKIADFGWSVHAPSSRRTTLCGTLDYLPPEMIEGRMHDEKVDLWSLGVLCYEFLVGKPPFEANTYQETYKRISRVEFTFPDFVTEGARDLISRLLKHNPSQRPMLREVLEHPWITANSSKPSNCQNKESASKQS
Description: (§1) Samples were analyzed by KiNativ in situ kinase profiling by ActivX Biosciences.

[8] = target: T3, STLK5 (Homo sapiens, UniProt Q7RTN6); assay: KiNativ, MOLM13 live cells; assay type: cell-based; conditions: MOLM-13, 2 h, 100 nM
T3 sequence (Q7RTN6 1-431): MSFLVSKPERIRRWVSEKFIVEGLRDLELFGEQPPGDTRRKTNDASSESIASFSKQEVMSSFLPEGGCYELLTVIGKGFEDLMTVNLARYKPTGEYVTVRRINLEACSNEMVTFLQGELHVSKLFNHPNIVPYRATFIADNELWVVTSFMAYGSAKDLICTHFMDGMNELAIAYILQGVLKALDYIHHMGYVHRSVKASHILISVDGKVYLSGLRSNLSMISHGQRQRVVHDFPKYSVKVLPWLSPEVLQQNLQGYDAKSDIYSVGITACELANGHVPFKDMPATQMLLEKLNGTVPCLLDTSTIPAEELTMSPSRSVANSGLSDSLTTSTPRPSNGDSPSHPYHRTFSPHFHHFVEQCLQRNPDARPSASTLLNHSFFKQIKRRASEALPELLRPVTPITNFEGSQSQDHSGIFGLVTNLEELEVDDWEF
Description: as §1

[9] = target: NEK3 (Homo sapiens, UniProt P51956); assay: KiNativ, MOLM13 live cells; assay type: cell-based; conditions: MOLM-13; 100 nM, 2 hours; Activation Loop; read-out: Inhibition vs DMSO
Description: as §1

[10] = target: PI4KA (Homo sapiens, UniProt P42356); assay: KiNativ, OCI cells live cell; assay type: cell-based; conditions: 2 h, labeling site ATP, peptide […]
[11] = target: PIK3C2B (Homo sapiens, UniProt O00750); assay: KiNativ, OCI cells live cell; assay type: cell-based; conditions: 2 h, labeling site ATP, peptide […]
[12] = target: DNAPK (Homo sapiens, UniProt P78527); assay: KiNativ, OCI cells live cell; assay type: cell-based; conditions: 2 h, labeling site ATP
[13] = target: PAK2 (Homo sapiens, UniProt Q13177); assay: KiNativ, OCI cells live cell; assay type: cell-based; conditions: 2 h
[14] = target: FES (Homo sapiens, UniProt P07332); assay: KiNativ, OCI cells live cell; assay type: cell-based; conditions: 2 h, labeling site Lys1, peptide […]
[15] = target: IRE1 (Homo sapiens, UniProt O75460); assay: KiNativ, OCI cells live cell; assay type: cell-based; conditions: 2 h, labeling site Lys2, peptide […]
[16] = target: FLT3 ITD/D835V (Homo sapiens, UniProt P36888, D835V/ITD); assay: KdELECT binding assay
[17] = target: CaMK2d (Homo sapiens, UniProt Q13557); assay: KiNativ, OCI cells live cell; assay type: cell-based; conditions: 2 h, labeling site Lys1, peptide […]
[18] = target: CHK2 (Homo sapiens, UniProt O96017); assay: KiNativ, OCI cells live cell; assay type: cell-based; conditions: 2 h
[19] = target: CaMK1a (Homo sapiens, UniProt Q14012); assay: KiNativ, OCI cells live cell; assay type: cell-based; conditions: 2 h
[20] = target: PIP4K2A (Homo sapiens, UniProt P48426); assay: KiNativ, OCI cells live cell; assay type: cell-based; conditions: 2 h, labeling site ATP, peptide […]
[21] = Lys2, read-out: Inhibition vs DMSO

Sequence of CHK2 (O96017 whole entry): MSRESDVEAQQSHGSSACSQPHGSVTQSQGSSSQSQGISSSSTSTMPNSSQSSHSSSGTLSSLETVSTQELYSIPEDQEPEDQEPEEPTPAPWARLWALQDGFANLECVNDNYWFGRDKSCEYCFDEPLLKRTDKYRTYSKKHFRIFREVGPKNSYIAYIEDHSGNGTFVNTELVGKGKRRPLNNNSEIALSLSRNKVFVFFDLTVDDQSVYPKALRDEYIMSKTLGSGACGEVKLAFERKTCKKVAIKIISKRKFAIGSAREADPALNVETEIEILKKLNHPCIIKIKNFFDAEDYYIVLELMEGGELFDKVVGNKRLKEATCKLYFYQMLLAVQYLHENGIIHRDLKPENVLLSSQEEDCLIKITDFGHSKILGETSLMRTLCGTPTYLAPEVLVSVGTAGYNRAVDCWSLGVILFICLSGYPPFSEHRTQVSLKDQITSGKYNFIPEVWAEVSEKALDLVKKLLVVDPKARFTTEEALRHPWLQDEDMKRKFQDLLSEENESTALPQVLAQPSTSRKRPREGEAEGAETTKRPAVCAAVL
Sequence of CaMK1a (Q14012 whole entry): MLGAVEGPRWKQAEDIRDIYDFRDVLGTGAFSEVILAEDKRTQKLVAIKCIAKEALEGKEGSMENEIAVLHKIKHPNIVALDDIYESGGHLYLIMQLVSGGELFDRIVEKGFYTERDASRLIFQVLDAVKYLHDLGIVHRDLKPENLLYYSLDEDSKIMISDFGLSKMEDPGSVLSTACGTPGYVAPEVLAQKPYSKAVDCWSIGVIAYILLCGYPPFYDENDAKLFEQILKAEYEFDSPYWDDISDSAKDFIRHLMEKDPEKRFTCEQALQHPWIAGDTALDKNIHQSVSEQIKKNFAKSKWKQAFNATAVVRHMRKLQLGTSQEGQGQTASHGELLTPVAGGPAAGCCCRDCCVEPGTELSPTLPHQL
Sequence of DNAPK (P78527 2-4128 limits assumed): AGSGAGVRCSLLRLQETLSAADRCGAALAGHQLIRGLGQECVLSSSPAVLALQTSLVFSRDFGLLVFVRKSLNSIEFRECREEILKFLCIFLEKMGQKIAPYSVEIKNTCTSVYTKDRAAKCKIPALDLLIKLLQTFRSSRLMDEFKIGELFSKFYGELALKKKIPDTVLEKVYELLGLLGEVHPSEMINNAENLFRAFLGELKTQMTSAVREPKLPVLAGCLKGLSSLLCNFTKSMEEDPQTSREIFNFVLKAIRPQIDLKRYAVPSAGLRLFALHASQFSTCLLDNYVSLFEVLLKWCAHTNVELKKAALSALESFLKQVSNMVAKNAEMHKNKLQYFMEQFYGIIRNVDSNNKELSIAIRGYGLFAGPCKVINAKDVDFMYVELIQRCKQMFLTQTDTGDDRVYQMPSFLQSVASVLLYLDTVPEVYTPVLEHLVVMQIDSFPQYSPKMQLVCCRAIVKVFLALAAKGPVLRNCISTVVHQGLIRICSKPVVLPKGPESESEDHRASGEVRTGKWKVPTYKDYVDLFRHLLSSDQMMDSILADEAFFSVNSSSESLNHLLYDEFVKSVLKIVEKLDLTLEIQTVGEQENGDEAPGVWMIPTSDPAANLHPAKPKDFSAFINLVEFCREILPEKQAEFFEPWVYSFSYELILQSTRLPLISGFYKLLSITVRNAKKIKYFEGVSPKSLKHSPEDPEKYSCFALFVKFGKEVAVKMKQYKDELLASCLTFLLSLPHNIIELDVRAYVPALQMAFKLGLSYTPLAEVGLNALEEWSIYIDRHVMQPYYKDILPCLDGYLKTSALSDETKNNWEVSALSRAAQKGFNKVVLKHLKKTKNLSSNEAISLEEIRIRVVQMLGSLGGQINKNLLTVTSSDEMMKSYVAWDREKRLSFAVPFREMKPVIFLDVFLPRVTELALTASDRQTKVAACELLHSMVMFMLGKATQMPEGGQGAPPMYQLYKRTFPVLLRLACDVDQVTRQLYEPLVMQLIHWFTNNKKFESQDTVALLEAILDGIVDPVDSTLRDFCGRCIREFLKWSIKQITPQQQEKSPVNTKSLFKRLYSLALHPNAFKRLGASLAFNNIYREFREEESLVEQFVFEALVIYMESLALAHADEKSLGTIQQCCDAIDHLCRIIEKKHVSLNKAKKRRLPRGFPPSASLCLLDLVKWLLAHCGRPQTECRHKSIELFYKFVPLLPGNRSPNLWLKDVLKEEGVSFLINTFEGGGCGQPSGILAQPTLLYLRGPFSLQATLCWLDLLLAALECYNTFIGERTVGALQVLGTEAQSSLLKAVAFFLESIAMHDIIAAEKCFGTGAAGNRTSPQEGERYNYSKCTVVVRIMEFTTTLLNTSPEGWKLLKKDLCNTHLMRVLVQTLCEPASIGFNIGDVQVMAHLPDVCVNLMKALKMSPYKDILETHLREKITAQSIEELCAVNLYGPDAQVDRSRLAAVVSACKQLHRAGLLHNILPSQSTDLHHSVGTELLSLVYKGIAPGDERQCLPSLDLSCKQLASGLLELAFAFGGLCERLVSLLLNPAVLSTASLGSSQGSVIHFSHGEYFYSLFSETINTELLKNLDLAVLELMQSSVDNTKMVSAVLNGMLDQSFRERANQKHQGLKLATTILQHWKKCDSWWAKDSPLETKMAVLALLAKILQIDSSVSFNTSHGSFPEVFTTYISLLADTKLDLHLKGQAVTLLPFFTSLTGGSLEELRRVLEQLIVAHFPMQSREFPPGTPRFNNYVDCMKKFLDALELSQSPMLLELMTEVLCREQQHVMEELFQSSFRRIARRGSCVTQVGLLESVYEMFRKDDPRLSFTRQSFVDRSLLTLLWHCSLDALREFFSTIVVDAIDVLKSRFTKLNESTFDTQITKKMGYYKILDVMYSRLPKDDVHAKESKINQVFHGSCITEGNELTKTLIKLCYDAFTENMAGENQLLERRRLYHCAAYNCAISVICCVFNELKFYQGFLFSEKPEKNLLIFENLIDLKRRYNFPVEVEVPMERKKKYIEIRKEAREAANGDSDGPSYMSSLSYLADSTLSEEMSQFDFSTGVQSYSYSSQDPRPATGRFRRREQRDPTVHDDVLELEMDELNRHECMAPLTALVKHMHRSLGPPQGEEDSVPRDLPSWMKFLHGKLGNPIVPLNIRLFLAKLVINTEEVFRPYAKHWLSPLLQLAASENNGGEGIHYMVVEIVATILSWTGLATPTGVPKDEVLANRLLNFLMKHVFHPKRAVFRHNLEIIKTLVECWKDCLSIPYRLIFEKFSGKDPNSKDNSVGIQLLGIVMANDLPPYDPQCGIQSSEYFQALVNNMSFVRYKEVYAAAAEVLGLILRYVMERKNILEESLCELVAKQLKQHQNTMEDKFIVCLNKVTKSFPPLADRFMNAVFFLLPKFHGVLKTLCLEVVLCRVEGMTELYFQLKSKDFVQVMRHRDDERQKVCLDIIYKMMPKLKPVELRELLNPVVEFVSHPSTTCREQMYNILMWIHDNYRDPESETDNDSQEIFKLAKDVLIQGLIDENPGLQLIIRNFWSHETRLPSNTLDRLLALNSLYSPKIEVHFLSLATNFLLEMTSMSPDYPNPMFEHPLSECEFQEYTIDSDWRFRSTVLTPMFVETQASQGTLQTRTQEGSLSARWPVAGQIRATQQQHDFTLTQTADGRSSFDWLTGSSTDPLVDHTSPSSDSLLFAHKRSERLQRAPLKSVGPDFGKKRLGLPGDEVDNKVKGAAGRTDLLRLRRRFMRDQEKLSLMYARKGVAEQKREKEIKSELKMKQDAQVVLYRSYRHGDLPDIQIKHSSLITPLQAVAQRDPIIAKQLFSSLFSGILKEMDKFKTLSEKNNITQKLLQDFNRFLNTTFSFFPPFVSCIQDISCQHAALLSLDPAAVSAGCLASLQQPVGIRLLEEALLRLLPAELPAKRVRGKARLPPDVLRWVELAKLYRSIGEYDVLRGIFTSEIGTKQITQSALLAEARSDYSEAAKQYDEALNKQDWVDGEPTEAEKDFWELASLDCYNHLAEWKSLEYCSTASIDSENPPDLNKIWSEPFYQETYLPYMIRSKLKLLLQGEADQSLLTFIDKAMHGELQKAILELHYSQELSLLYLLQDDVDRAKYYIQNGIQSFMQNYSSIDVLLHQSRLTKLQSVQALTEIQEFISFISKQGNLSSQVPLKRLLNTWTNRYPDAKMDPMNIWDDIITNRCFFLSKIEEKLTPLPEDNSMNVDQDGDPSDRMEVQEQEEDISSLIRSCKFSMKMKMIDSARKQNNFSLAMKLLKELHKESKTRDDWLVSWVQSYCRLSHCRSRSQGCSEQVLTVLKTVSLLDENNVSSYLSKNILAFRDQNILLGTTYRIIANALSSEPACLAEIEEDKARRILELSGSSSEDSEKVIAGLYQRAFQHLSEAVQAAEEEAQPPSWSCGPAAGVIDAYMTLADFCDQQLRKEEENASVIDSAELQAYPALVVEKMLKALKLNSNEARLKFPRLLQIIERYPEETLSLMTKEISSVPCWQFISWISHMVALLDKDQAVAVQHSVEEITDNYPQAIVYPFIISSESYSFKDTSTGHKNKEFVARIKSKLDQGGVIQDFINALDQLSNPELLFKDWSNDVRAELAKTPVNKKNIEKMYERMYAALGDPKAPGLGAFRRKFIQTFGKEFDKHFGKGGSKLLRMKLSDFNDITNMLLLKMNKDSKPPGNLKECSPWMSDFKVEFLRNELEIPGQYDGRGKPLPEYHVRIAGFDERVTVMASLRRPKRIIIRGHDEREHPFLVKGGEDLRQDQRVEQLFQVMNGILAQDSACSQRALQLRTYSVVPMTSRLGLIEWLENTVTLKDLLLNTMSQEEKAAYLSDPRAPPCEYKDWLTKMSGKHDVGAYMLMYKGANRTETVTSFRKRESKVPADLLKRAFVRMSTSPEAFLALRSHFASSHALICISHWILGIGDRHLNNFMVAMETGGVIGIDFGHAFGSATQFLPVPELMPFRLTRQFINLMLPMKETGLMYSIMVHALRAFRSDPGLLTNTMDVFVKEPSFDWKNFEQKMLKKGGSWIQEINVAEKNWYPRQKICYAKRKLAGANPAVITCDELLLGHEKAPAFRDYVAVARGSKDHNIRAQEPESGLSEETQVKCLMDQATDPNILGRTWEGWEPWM

CN1CCN(Cc2ccc(Nc3ncc(Cl)c(Nc4ccccc4S(=O)(=O)N(C)C)n3)cc2)CC1 [TP-0903]
inhibition at 0.1 µM [1]: -26.9%
inhibition at 0.1 µM [2]: 17.7%
Inhibition [3]: 40.5%
Kd [4]: 24 nM
inhibition at 0.1 µM [5]: -41.6%
Inhibition [6]: -14.9%
inhibition at 0.1 µM ([7]; Lys1, read-out: Inhibition vs DMSO): 58.2%
inhibition at 0.1 µM [7, 21]: 59.4%
inhibition at 0.1 µM ([8]; Activation Loop, read-out: Inhibition vs DMSO): 4.2%
inhibition at 0.1 µM [8, 21]: -19%
inhibition at 0.1 µM [9]: 14.6%
inhibition at 0.1 µM [10]: -14.6%
inhibition at 0.1 µM [11]: 0.282%
inhibition at 0.1 µM ([12]; peptide EHPFLVKGGEDLR): 2.8%
inhibition at 0.1 µM ([12]; peptide KGGSWIQEINVAEK): 8.4%
inhibition at 0.1 µM ([13]; labeling site Lys1, peptide IGQGASGTVFTATDVALGQEVAIKQINLQK): -53.1%
inhibition at 0.1 µM ([13]; labeling site Other, peptide KNPQAVLDVLKFYDSNTVK): -21.3%
inhibition at 0.1 µM [14]: 47.3%
inhibition at 0.1 µM [15]: 33.5%
Kd [16]: 0.79 nM
inhibition at 0.1 µM [17]: 34.5%
inhibition at 0.1 µM ([18]; labeling site Lys1, peptide VAIKIISK): 37.7%
inhibition at 0.1 µM ([18]; labeling site Lys2, peptide DLKPENVLLSSQEEDCLIK): 37.1%
inhibition at 0.1 µM ([19]; labeling site Lys1, peptide LVAIKCIAK): -6.6%
inhibition at 0.1 µM ([19]; labeling site Lys2, peptide DLKPENLLYYSLDEDSK): -19.1%
inhibition at 0.1 µM [20]: -17.8%
